# Molecular target: IDH1 R132H (Homo sapiens (Human), UniProt O75874, R132H)
# Assay: Effect on the enzyme activity of IDH1 at the molecular level (NADPH consumption, diaphorase/resazurin)
# Type: biochemical
# Conditions: α-KG 1 mM, NADPH 4 μM, 60 min room temperature
# Method: The enzyme used in the experiment was purchased from cayman Co.
# The substrates α-KG, NADPH and Diaphorase were purchased from Sigma; Resazurin was purchased from J&K; and the remaining reagents were purchased from Sinopharm Chemical Reagent Co., Ltd.
# Compound preparation: Compound 12000 g was centrifuged for 5 min, DMSO was added to prepare 10 mM, which was vortexed, then ultrasonic treatment for 10 minutes, and stored at −40° C. The stock solution was diluted firstly with DMSO to a 10 μM solution when tested and then gradient-diluted for 3 times to a different test concentration.
# Test method: The enzyme activity of IDH1 to convert α-KG to 2HG was measured by the consumption of NADPH. After the enzymatic reaction was completed, a catalytic excess of diaphorase and reazurin were added, and the resulting fluorescent signal could reflect the amount of remaining NADPH. […] IC50 values were calculated using GraphPad Prism software.
# Chain of IDH1 R132H (O75874 whole entry R132H): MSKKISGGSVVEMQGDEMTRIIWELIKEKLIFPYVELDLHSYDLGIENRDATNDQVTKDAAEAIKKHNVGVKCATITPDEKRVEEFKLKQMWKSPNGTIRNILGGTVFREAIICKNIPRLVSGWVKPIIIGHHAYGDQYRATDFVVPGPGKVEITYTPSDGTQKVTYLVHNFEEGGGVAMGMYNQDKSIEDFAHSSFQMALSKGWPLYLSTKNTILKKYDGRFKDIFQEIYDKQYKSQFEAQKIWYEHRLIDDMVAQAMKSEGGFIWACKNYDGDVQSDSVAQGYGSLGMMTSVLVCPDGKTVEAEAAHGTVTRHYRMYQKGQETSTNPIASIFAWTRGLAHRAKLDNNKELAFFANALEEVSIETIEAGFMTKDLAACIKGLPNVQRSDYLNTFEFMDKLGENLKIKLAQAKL
row,Compound,IC50 [nM]
1,"CC(C)[C@H]1CN(C)C(=O)N1c1ccnc(NC2(c3cn(-c4cc(Cl)cc(C#N)c4)cn3)CC2)n1 [Compound 45, (S)-3-chloro-5-(4-(1-((4-(5-isopropyl-3-methylimidazolidine-2-one-1-yl)pyrimidin-2-yl)amine)cyclopropyl)-1H-imidazolidine-1-yl) phenyl cyanide]",< 100
2,"CC(C)[C@H]1CN(C)C(=O)N1c1ccnc(NC2(c3cn(-c4ccccc4Cl)cn3)CC2)n1 [Compound 51, (S)-3-(2-((1-(1-(2-chlorophenyl)-1H-imidazol-4-yl)cyclopropyl)amino)pyrimidin-4-yl)-4-isopropyl-1-methylimidazolidine-2-one]",100 to 1000
3,CC(C)c1cccc(-n2cnc([C@H](C)Nc3nccc(N4C(=O)N(C)C[C@@H]4C(C)C)n3)c2)c1 [Compound 54],100 to 1000
4,"CC(C)[C@H]1CN(C)C(=O)N1c1ccnc(N[C@@H](C)c2cn(C3CCC(C)(C)CC3)cn2)n1 [Compound 56, (S)-3-(2-(((S)-1-(1-(4,4-dimethylcyclohexyl)-1H-imidazol-4-yl)ethyl)amino)pyrimidin-4-yl)-4-isopropyl-1-methylimidazolidine-2-one]",100 to 1000
5,CC(C)[C@H]1CN(C)C(=O)N1c1ccnc(N[C@@H](C)c2cn(-c3cccc(C(F)(F)F)c3)cn2)n1 [Compound 59],100 to 1000
6,"CC(C)[C@H]1CN(C)C(=O)N1c1ccnc(N[C@@H](C)c2cn(-c3cc(Cl)cc(Cl)c3)cn2)n1 [Compound 60, (S)-3-(2-(((S)-1-(1-(3,5-dichlorophenyl)-1hydro-imidazol-4-yl)ethyl)amino)pyrimidin-4-yl)-4-isopropyl-1-methylimidazolidine-2-one]",100 to 1000
7,CC(C)[C@H]1CN(C)C(=O)N1c1ccnc(NC2(c3ncn(-c4cccc(C5CC5)c4)n3)CC2)n1 [Compound 64],100 to 1000
8,"CC(C)CCn1cnc([C@H](C)Nc2nccc(N3C(=O)N(C)C[C@@H]3C(C)C)n2)c1 [Compound 66, (S)-3-(2-(((S)-1-(1-isopentyl-1H-imidazol-4-yl)yl)amino)pyrimidin-4-yl)-4-isopropyl-1-methylimidazolidine-2-one]",100 to 1000
9,CC(C)[C@H]1CN(C)C(=O)N1c1ccnc(NC2(c3cn(-c4cccc(C5CC5)c4)c(Br)n3)CC2)n1 [Compound 67],100 to 1000
10,"CC(C)[C@H]1CN(C)C(=O)N1c1ccnc(NC2(c3ncn(-c4cccc(C5CC5)c4)c3C#N)CC2)n1 [Compound 69, (S)-1-(3-cyclopropylphenyl)-4-(1-((4-(5-isopropyl-3-methyl-2-oxoimidazolidine-1-yl)pyrimidine-2-yl)amino)cyclopropyl)-1H-imidazole-5-carbonitrile]",100 to 1000
11,CC(C)[C@H]1CN(C)C(=O)N1c1ccnc(N[C@@H](C)c2ncn(-c3ccc(Cl)cc3)n2)n1 [Compound 70],100 to 1000

# Continued, values first:
row,IC50 [nM],Compound
1,100 to 1000,"[2H]C1([2H])[C@H](C(C)C)N(c2ccnc(N[C@@H](C)c3ccc(-c4cccc(Cl)c4)cn3)n2)C(=O)N1C [Compound 2, (S)-3-(2-(((S)-1-(5-(3-chlorophenyl)pyridin-2-yl)ethyl)amino)pyrimidin-4-yl)-4-isopropyl-1-methyl-imidazolidine-2-one-5,5-dideutero]"
2,100 to 1000,"CC(C)[C@H]1CNC(=O)N1c1ccnc(NC2(c3cn(-c4ccc(Cl)cc4)cn3)CC2)n1 [Compound 8, (S)-1-(2-((1-(1-(4-chlorophenyl)-1H-imidazol-4-yl)cyclopropyl)amino)pyrimidin-4-yl)-5-isopropyl imidazolidine-2-one]"
3,100 to 1000,"CC(Nc1nccc(N2C(=O)NC[C@@H]2C(C)C)n1)c1ccc(Oc2ccccc2)cc1 (stereo partly drawn) [Compound 9, (5S)-5-isopropyl-1-(2-((1-(4-phenoxyphenyl)ethyl)amino)pyrimidin-4-yl)imidazolidine-2-one]"
4,100 to 1000,"C[C@H](Nc1nccc(N2C(=O)NCC23CCCC3)n1)c1cn(-c2ccc(Cl)cc2)cn1 [Compound 11, (S)-1-(2-((1-(1-(4-chlorophenyl)-1H-imidazol-4-yl)ethyl)amino)pyrimidin-4-yl)-1,3-diazaspiro[4.4]-2-one]"
5,100 to 1000,"C[C@H](Nc1nccc(N2C(=O)NCC2(C)C)n1)c1cn(-c2ccc(Cl)cc2)cn1 [Compound 12, (S)-1-(2-((1-(1-(4-chlorophenyl)-1H-imidazol-4-yl)ethyl)amino)pyrimidin-4-y 1)-5,5-dimethyl imidazolidine-2-one]"
6,100 to 1000,"O=C1NC[C@H](c2ccccc2)N1c1ccnc(NC2(c3cn(-c4ccc(Cl)cc4)cn3)CC2)n1 [Compound 13, (S)-1-(2-((1-(1-(4-chlorophenyl)-1H-imidazol-4-yl)cyclopropyl)amino)pyrimidin-4-yl)-5-phenylimidazolidine-2-one]"
7,100 to 1000,C[C@H](Nc1nccc(N2C(=O)NC[C@@H]2C2CC2)n1)c1cn(-c2ccc(Cl)cc2)cn1 [Compound 14]
8,100 to 1000,"CC(C)[C@H]1CNC(=O)N1c1ccnc(NC2(c3ccc(-c4ccc(Cl)cc4)cc3)CC2)n1 [Compound 16, (S)-1-(2-((1-(4′-chloro-[1,1′-biphenyl]-4-yl)cyclopropyl)amino)pyrimidin-4-yl)-5-isopropyl imidazolidine-2-one]"
9,100 to 1000,"CC(C)[C@H]1CN(C)C(=O)N1c1ccnc(NC2(c3cn(-c4ccc(Cl)cc4)cn3)CC2)n1 [Compound 19, (S)-3-(2-((1-(1-(4-chlorophenyl)-1H-imidazol-4-yl)cyclopropyl)amino)pyrimidin-4-yl)-4-isopropyl-1-methylimidazolidine-2-one]"
10,100 to 1000,"Cc1ccc(-n2cnc(C3(Nc4nccc(N5C(=O)NC[C@@H]5C(C)C)n4)CC3)c2)cn1 [Compound 29, (S)-5-isopropyl-1-(2-((1-(1-(6-methylpyridin-3-yl)-1H-imidazol-4-yl)cyclopropyl)amino)pyrimidine-4-yl)-2-one]"
11,100 to 1000,"CC(C)[C@H]1CN(C)C(=O)N1c1ccnc(NC2(c3cn(C4CCC(F)(F)CC4)cn3)CC2)n1 [Compound 36, (S)-3-(2-((1-(1-(4,4-difluorocyclohexyl)-1H-imidazol-4-yl)cyclopropyl)amino)pyrimidin-4-yl)-4-isopropyl-1-methylimidazolidine-2-one]"
12,100 to 1000,"CC(C)[C@H]1CN(C)C(=O)N1c1ccnc(NC2(c3cn(-c4ccc(C5CC5)cc4)cn3)CC2)n1 [Compound 39, (S)-3-(2-((1-(1-(4-cyclopropylphenyl)-1H-imidazol-4-yl)cyclopropyl)amino)pyrimidin-4-yl)-4-isopropyl-1-methylimidazolidine-2-one]"
13,100 to 1000,"CC(C)[C@H]1CN(C)C(=O)N1c1ccnc(NC2(c3cn(CC4CCCC4)cn3)CC2)n1 [Compound 40, (S)-3-(2-((1-(1-(cyclopentylmethyl)-1H-imidazol-4-yl)cyclopropyl)amino)pyrimidin-4-yl)-4-isopropyl-1-methylimidazolidine-2-one]"
14,100 to 1000,CCN1C[C@H](C(C)C)N(c2ccnc(NC3(c4cn(-c5cccc(Cl)c5)cn4)CC3)n2)C1=O [Compound 41]
15,< 100,CC(C)[C@H]1CN(C)C(=O)N1c1ccnc(NC2(c3cn(-c4cc(Cl)cc(C5CC5)c4)cn3)CC2)n1 [Compound 48]
16,< 100,CC(C)[C@H]1CN(C)C(=O)N1c1ccnc(NC2(c3cn(-c4cc(F)cc(C5CC5)c4)cn3)CC2)n1 [Compound 53]

# — patent publication US10682352B2, “Compound having mutant IDH inhibitory activity, preparation method and use thereof” (SHANGHAI HAIHE PHARMACEUTICAL CO., LTD., priority 2016, dated 2020)
